Read-outs that look alike come from different tables or passages of the source.
Key:
human 5-HT2B receptor = human 5-HT2B receptor (Homo sapiens, UniProt P41595); assay: Human 5-HT2B radioligand binding assay ([3H]-LSD); conditions: [3H]-LSD displacement, cell membrane, 37° C., 90 min
Description: The objective of this study was to evaluate the binding properties of test compounds on 5-HT2B.
1) The assay buffer was prepared following Table 29 below.
2) Eight doses of reference and test compounds starting from 10 mM stock solution as requested by 5-fold serial dilutions with 100% (v/v) DMSO.
3) UniFilter-96 GF/B plate was pretreated: • a. 50 μL/well of 0.5% (v/v) PEI to UniFilter-96 GF/B plates. The plates were sealed and incubated at 4° C. for 3 hrs. • b. After incubation, the plates were washed 3 times with ice-cold wash buffer (50 mM Tris, pH 7.4).
4) Assay plate preparation: • a. Cell membrane was diluted with assay buffer and 330 μL/well added to 96 round deep well plates to reach a concentration of 1 unit/well. • b. Eight concentrations of reference or test compounds were prepared and 110 μL/well added to 96 round deep well plates. • c. [3H]-LSD was diluted with assay buffer to 5 nM (5× final concentration) and 110 μL/well was added to 96 round deep well plates.
5) The plate was centrifuged at 1000 rpm for 30 secs and then agitated at 600 rpm at room temperature for 5 mins.
6) The plates were sealed and incubated at 37° C. for 90 mins.
7) The incubation was stopped by vacuum filtration onto GF/B filter plates followed by washing four times with ice-cold wash buffer (50 mM Tris, pH7.4).
9) The filter plates were sealed and 40 μL/well of scintillation cocktail was added.
10) The plate was read using a Microbeta2 microplate counter.
For reference and test compounds, the results are expressed as % Inhibition, using the normalization equation: N=100−100×(U−C2)/(C1−C2), where U is the unknown value, C1 is the average of high controls, and C2 is the average of low controls. The IC50 is determined by fitting percentage of inhibition as a function of compound concentrations with Hill equation.
The objective of this study is to evaluate the binding properties of test compounds on 5-HT2B.
1) The assay buffer was prepared following Table 59 below.
3) UniFilter-96 GF/B plate was pretreated: • a. 50 μL/well of 0.5% (v/v) PEI to UniFilter-96 GF/B plates. The plates were sealed and incubate at 4° C. for 3 hrs. • b. After incubation, the plates were washed three times with ice-cold wash buffer (50 mM Tris, pH7.4).
5) The plate was centrifuged at 1000 rpm for 30 secs and then agitated at 600 rpm at room temperature for 5 min.
8) The plates were dried at 37° C. for 45 mins.
10) The plate was read using a Microbeta^2 microplate counter.
For reference and test compounds, the results are expressed as % Inhibition, using the normalization equation: N=100−100×(U−C2)/(C1−C2), where U is the unknown value, C1 is the average of the high controls, and C2 is the average of the low controls. The IC50 is determined by fitting percentage of inhibition as a function of compound concentrations with Hill equation.

[1] = Plasma protein binding by equilibrium dialysis, dog; assay type: in vitro ADME; conditions: dog plasma, 6 hours
Description: The final concentration of compound was 1 μM. The final concentration of DMSO was 0.5%. Ketoconazole was used as positive control in the assay.
The assay was performed in duplicate.
All calculations were carried out using Microsoft Excel. […] The percentages of bound compound were calculated as follows: […]
Ketoconazole was used as positive control in the assay.

human 5-HT2C receptor = target: T1, human 5-HT2C receptor (Homo sapiens, UniProt P28335); assay: cell-based; conditions: calcium mobilization FLIPR
T1 construct: expressed in transfected cells; host or cells: U2OS
T1 sequence (P28335 33-458): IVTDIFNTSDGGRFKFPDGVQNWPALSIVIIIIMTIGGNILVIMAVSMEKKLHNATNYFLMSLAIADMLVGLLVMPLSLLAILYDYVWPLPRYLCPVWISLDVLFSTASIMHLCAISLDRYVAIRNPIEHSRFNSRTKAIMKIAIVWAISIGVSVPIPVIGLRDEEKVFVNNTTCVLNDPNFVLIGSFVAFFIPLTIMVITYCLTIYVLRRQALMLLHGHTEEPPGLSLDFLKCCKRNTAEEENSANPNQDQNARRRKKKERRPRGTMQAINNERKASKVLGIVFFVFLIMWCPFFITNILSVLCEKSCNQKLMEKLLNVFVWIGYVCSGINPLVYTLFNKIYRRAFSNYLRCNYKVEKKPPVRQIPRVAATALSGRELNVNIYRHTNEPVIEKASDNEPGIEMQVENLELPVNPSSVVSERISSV

[2] = Pharmacokinetic studies in rat (i.v.); assay type: in vivo; conditions: male, Sprague-Dawley, plasma; for concentration at 0.25 h / concentration at 1 h / concentration at 4 h: intravenous, dose per Dose column (1.32-2.09 mg/kg); for half-life / AUC(0-t): iv, rat plasma, i.v., dose per Dose column; for half-life: estimated from 2 points only
Description: Animals: Male Sprague-Dawley rats (˜225-350 g) from Charles River Labs were acclimatized for a minimum of 5 days prior to start of study procedures. Body weights were recorded on the day of dosing.
Any abnormalities were documented including presence/absence of wet dog shakes/back muscle contractions (WDS/BMC).
Dosing: Formulations were administered intravenously (i.v.) via the tail vein using a 25 G needle connected to a 1 cc syringe.
The exemplary compounds of Formula (I) were freshly prepared at the appropriate concentrations in 5% Tween-80 in saline.
Blood collection time (h): 0, […], 1 and 4
Volume/time-point: ˜0.25 mL (saphenous vein)
Instrumentation: AB Sciex QTRAP 4000 or 6500 MS/MS system equipped with an LC system with a binary pump, a solvent degasser, a thermostated column compartment, and a multiplate autosampler.
Analysis software: Phoenix® WinNonlin® 8.3 (Pharsight, Certara, Mountainview, CA).
Analysis methods: non-compartmental analysis, linear up/log down trapezoidal rule.
PK parameters: t1/2 and AUC0-tlast was estimated.
The Compounds of Formula (I) were freshly prepared at the appropriate concentrations in 5% Tween-80 in saline.
Instrumentation: AB Sciex QTRAP 4000 or 6500 MS/MS system equipped with an LC system with a binary pump, a solvent degasser, a thermostated column compartment and a multiplate autosampler.
PK parameters: t1/2 and AUC0-tlast will be estimated.

[3] = first animal (R07/R04/R01/R10), read-out: Plasma concentration
[4] = mean of 3 rats, read-out: Plasma concentration, Mean ± SD
[5] = second animal (R08/R05/R02/R11), read-out: Plasma concentration
[6] = third animal (R09/R06/R03/R12), read-out: Plasma concentration

Chain of human 5-HT2B receptor (P41595 whole entry): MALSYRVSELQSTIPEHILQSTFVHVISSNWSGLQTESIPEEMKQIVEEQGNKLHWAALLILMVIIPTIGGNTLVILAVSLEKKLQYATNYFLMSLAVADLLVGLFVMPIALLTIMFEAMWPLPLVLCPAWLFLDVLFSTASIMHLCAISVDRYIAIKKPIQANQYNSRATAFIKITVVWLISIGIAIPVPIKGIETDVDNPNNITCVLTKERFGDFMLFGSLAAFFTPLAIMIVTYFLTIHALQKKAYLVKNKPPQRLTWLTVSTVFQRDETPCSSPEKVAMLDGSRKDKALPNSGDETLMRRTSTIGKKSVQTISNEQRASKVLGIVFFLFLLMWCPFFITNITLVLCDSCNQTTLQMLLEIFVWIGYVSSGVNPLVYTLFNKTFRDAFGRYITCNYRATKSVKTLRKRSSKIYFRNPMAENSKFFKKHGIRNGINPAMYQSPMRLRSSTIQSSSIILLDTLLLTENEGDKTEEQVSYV

Structure (SMILES): [2H]C([2H])(c1c[nH]c2ccc(OCCCCN3C(=O)c4ccccc4C3=O)cc12)[C@H]1CCCN1C([2H])([2H])[2H] [(R) I-244, (R)-2-(4-((3-((1-(Methyl-d3)pyrrolidin-2-yl)methyl-d2)-1H-indol-5-yl)oxy)butyl)isoindoline-1,3-dione]
- IC50 (human 5-HT2B receptor; read-out: 5-HT2B, IC50): 0.0214 µM
- Ki (human 5-HT2B receptor; read-out: 5-HT2B, Ki): 0.0111 µM
- recovery at 6 h, 1 µM ([1]; Beagle, dog, equilibrium dialysis, 37° C.): 94.6%
- fraction unbound at 6 h, 1 μM ([1]; Beagle, equilibrium dialysis, 37° C., read-out: % Bound (converted)): 0.0281
- % Remaining @ 6 hours [1]: 94.07%
- Emax (% of serotonin) (human 5-HT2C receptor; U2OS cells, relative to maximum response of serotonin): 87.27 % of serotonin
- EC50 (human 5-HT2C receptor; stably transfected U2OS cells): 0.00253 µM
- concentration at 0.25 h [2, 3]: 252 ng/mL
- concentration at 0.25 h [2, 4]: 292 ± 59.4 ng/mL
- concentration at 0.25 h [2, 5]: 360 ng/mL
- concentration at 0.25 h [2, 6]: 263 ng/mL
- concentration at 1 h [2, 3]: 132 ng/mL
- concentration at 1 h [2, 4]: 130 ± 21.6 ng/mL
- concentration at 1 h [2, 5]: 150 ng/mL
- concentration at 1 h [2, 6]: 107 ng/mL
- concentration at 4 h [2, 3]: 20.7 ng/mL
- concentration at 4 h [2, 4]: 22 ± 1.63 ng/mL
- concentration at 4 h [2, 5]: 23.8 ng/mL
- concentration at 4 h [2, 6]: 21.4 ng/mL
- half-life ([2]; first animal (R07/R04/R01/R10), read-out: Apparent t1/2 (converted)): 1.06 h
- half-life ([2]; mean of 3 rats, read-out: Apparent t1/2, Mean ± SD (converted)): 1.05 ± 0.0494 h
- half-life ([2]; second animal (R08/R05/R02/R11), read-out: Apparent t1/2 (converted)): 1 h
- half-life ([2]; third animal (R09/R06/R03/R12), read-out: Apparent t1/2 (converted)): 1.1 h
- AUC(0-t) ([2]; first animal (R07/R04/R01/R10), read-out: AUC0-tlast): 390 ng·h/mL
- AUC(0-t) ([2]; mean of 3 rats, read-out: AUC0-tlast, Mean ± SD): 415 ± 65.7 ng·h/mL
- AUC(0-t) ([2]; second animal (R08/R05/R02/R11), read-out: AUC0-tlast): 490 ng·h/mL
- AUC(0-t) ([2]; third animal (R09/R06/R03/R12), read-out: AUC0-tlast): 366 ng·h/mL

Reference: patent publication US12606543B2, “Indole derivatives as serotonergic agents useful for the treatment of disorders related thereto” (priority 2023, dated 2026)
